Data: patent US20200046648A1, “POLYMERIC NANOPARTICLES COMPRISING SALINOMYCIN” (priority 2018, published 2020)
Entries after “also recorded” stand apart in the source; their conditions may differ.

Key:
[1] = Comparative toxicity in wild-type mice; assay type: in vivo
Experimental: The effect of nanoparticles in mitigating the toxicity of salinomycin was examined in wild-type mice. Different doses of salinomycin alone (5, 7.5, 10, 12.5 and 15 mg/kg) or salinomycin-nanoparticles (SAL-NP) (5, 7.5, 10, 12.5 and 15 mg/kg) were injected into wild-type mice. Three mice were used in each group of salinomycin alone and salinomycin-NP groups, body weights, food and water uptake were measured every day for 22 days.

[2] = Preliminary toxicity study, histopathology by H & E staining; assay type: in vivo, CD2 male mice
Experimental: (§1) A study was conducted in wild-type CD2 male mice to evaluate and compare the effects of salinomycin (SAL) at three different concentrations and compared to a formulation of SAL in biodegradable tetra-block polymeric nanoparticles.
(§2) MICE 20-25 g male CD2 mice between the ages 6 to 8 weeks from Taconic were used. The animals were acclimatized for five days before initiating the study.
(§3) Animals were injected intravenously either with 5.0 mg/kg, 8.5 mg/kg, or 12.5 mg/kg of SAL or SAL-NPs once, according to Table 1 below. Control animals were treated with PBS.
(§4) Tolerability of the drug by animals was measured via clinical, weight and behavioral changes. The compounds were administered once on day 1. Seven days following administration, all animals were euthanized and blood was collected for a complete blood chemistry and hematology analysis (see Table 2 and 3 below). Post mortem was conducted to examine all of the animals. Different organs (brain, heart, lung, liver, spleen, stomach, intestine, kidney, and skin) were also isolated for histo-pathological evaluation by H & E staining.
All the animals did well in the study, except the Salinomycin 12.5 mg/kg group. The histopathological studies were conducted on brain, heart, lung, liver, spleen, stomach, intestine, kidney, muscles, and skin tissues by H & E staining. […]

[3] = Preliminary toxicity study, post mortem observations; assay type: in vivo, CD2 male mice; conditions: day 7
Experimental: as §1, §2, §3, §4
On day 7 of the study, a post mortem inspection was conducted on each and every animal. […] There was slight enlargement observed on the fascia around the testis.

[4] = test system: CD44+/CD24low cells; assay: Flow cytometric identification of cancer stem cells from a TNBC patient; assay type: cell-based; conditions: TNBC patient tumor derived spheroid cultures; 72 hours; FACS
Experimental: Flow cytometric identification of cancer stem cells (CSCs) by CD24-PE & CD44-FITC antibody staining in triple negative breast cancer (TNBC) patient tumor derived cells cultured as spheroid cultures and then treated with the indicated drugs for72h. Following 72 hours of treatment of the mammospheres, cells were dissociated with Acutase treatment. Following washing, cells were stained with CD24-PE & CD44-FITC antibody, washed and analyzed by FACS. The subpopulation of CD44+/CD24-low cells were gated and quantified.

Structure (SMILES) | survival ([1]; 10 mg/kg) | survival ([1]; 12.5 mg/kg) | survival (day of the study) ([1]; 15 mg/kg) | organ toxicity (conclusion) ([2]; 5, 8.5, 12.5 mg/kg i.v. once, day 7) | microscopical examination of all the tissues ([2]; mouse, in vivo) | Post-mortem findings ([3]; 5 mg/kg i.v. once) | Post-mortem findings ([3]; 8.5 mg/kg i.v. once) | Post-mortem findings ([3]; 12.5 mg/kg i.v. once) | effect on CD44+/CD24low cells [4]
CC[C@@H](C(=O)[C@@H](C)[C@@H](O)[C@H](C)[C@@H]1O[C@@H]([C@@H](CC)C(=O)O)CC[C@@H]1C)[C@H]1O[C@]2(C=C[C@@H](O)[C@]3(CC[C@@](C)([C@H]4CC[C@](O)(CC)[C@H](C)O4)O3)O2)[C@H](C)C[C@@H]1C [SAL, salinomycin] | five | three | died after day 3 | toxicity to the liver, kidney, testis, and epididymis | changes were observed in the kidney, liver, testis and epididymis | did not show any observable changes; also recorded: No Changes observed | slightly reddish and slightly enlarged testis; also recorded: testis with redness; also recorded: No Changes observed | reddening of the fascia surrounding testis; also recorded: Epidydimus enalrged | –
CC(=O)O[C@H]1C(=O)[C@@]2(C)[C@H]([C@H](OC(=O)c3ccccc3)[C@]3(O)C[C@H](OC(=O)[C@H](O)[C@@H](NC(=O)c4ccccc4)c4ccccc4)C(C)=C1C3(C)C)[C@]1(OC(C)=O)CO[C@@H]1C[C@@H]2O [Paclitaxel] | – | – | – | – | – | – | – | – | not much effect
